Measured values: patent US20090281137A1, “INDOL-2-ONE DERIVATIVES FOR THE TREATMENT OF CENTRAL NERVOUS DISORDERS, GASTROINTESTINAL DISORDERS AND CARDIOVASCULAR DISORDERS” (priority 2004, published 2009)
Where a name gives a salt, the structure may show the parent alone.

system: not given; assay: not given; settings: not given

Row | Compound | melting point
1 | CCC1(CCCCN2CC=C(c3ccc(Cl)cc3)CC2)C(=O)Nc2ccccc21 (stereo not drawn) | 142 to 145 °C
2 | CCC1(CCCCN2CC=C(c3cccc(Cl)c3)CC2)C(=O)Nc2ccc(F)cc21 (stereo not drawn) | 112 to 114 °C
3 | CCC1(CCCCN2CC=C(c3ccc(Cl)cc3)CC2)C(=O)Nc2ccc(F)cc21 (stereo not drawn) | 146 to 148 °C
4 | CCC1(CCCCN2CCc3sccc3C2)C(=O)Nc2ccccc21 (stereo not drawn) (as salt: hydrochloride) [Example 29, 3-[4-(6,7-Dihydro-4H-thieno[3,2-c]pyridin-5-yl)-butyl]-3-ethyl-1,3-dihydro-2H-indol-2-one monohydrochloride] | 143 to 144 °C
5 | CCC1(CCCCCN2CCc3sc(Cl)cc3C2)C(=O)Nc2ccccc21 (stereo not drawn) (as salt: hydrochloride) [Example 37, 3-[5-(2-Chloro-6,7-dihydro-4H-thieno[3,2-c]-pyridin-5-yl)-pentyl]-3-ethyl-1,3-dihydro-2H-indol-2-one monohydrochloride] | 96 to 98 °C
6 | CCC1(CCCCN2CC=C(c3ccc(F)cc3)CC2)C(=O)Nc2ccccc21 (stereo not drawn) (as salt: hydrochloride) [Example 39, 3-Ethyl-3-{4-[4-(4-fluorophenyl)-1,2,3,6-tetrahydropyridin-1-yl]-butyl}-1,3-dihydro-2H-indol-2-one monohydrochloride] | 108 to 111 °C
7 | CCC1(CCCCCN2CCc3sccc3C2)C(=O)Nc2ccccc21 (stereo not drawn) (as salt: oxalate) [Example 36, 3-[5-(6,7-Dihydro-4H-thieno[3,2-c]pyridin-5-yl)-pentyl]-3-ethyl-1,3-dihydro-2H-indol-2-one monooxalate] | 193 to 195 °C
8 | CCC1(CCCN2CCc3sccc3C2)C(=O)Nc2ccccc21 (stereo not drawn) [Example 23, 3-[3-(6,7-Dihydro-4H-thieno[3,2-c]pyridin-5-yl)-propyl]-3-ethyl-1,3-dihydro-2H-indol-2-one] | 130 to 132 °C
9 | CCC1(CCCN2CCc3sccc3C2)C(=O)Nc2ccc(Cl)cc21 (stereo not drawn) [Example 24, 5-Chloro-3-[3-(6,7-dihydro-4H-thieno[3,2-c]-pyridin-5-yl)-propyl]-3-ethyl-1,3-dihydro-2H-indol-2-one] | 66 to 69 °C
10 | CCC1(CCCCN2CCc3sccc3C2)C(=O)Nc2ccc(Br)cc21 (stereo not drawn) [Example 27, 5-Bromo-3-[4-(6,7-dihydro-4H-thieno[3,2-c]pyridin-5-yl)-butyl]-3-ethyl-1,3-dihydro-2H-indol-2-one] | 149 to 151 °C
11 | CC(C)CC1(CCCCN2CCc3sccc3C2)C(=O)Nc2ccccc21 (stereo not drawn) [Example 28, 3-[4-(6,7-Dihydro-4H-thieno[3,2-c]pyridin-5-yl)-butyl]-3-isobutyl-1,3-dihydro-2H-indol-2-one] | 114 to 116 °C
12 | CCC1(CCCCN2CCc3sccc3C2)C(=O)Nc2ccc(C)cc21 (stereo not drawn) [Example 30, 3-[4-(6,7-Dihydro-4H-thieno[3,2-c]pyridin-5-yl)-butyl]-3-ethyl-5-methyl-1,3-dihydro-2H-indol-2-one] | 138 to 140 °C
13 | CCC1(CCCCN2CCc3sccc3C2)C(=O)Nc2c(Cl)cc(F)cc21 (stereo not drawn) [Example 33, 7-Chloro-3-[4-(6,7-dihydro-4H-thieno[3,2-c]-pyridin-5-yl)-butyl]-3-ethyl-5-fluoro-1,3-dihydro-2H-indol-2-one] | 194 to 196 °C
14 | CCC1(CCCCN2CCc3sc(Cl)cc3C2)C(=O)Nc2ccccc21 (stereo not drawn) [Example 34, 3-[4-(2-Chloro-6,7-dihydro-4H-thieno[3,2-c]-pyridin-5-yl)-butyl]-3-ethyl-1,3-dihydro-2H-indol-2-one] | 117 to 119 °C
15 | CCC1(CCCCN2CCc3sccc3C2)C(=O)Nc2cc(F)c(Cl)cc21 (stereo not drawn) [Example 35, 5-Chloro-3-[4-(6,7-dihydro-4H-thieno[3,2-c]-pyridin-5-yl)-butyl]-3-ethyl-6-fluoro-1,3-dihydro-2H-indol-2-one] | 155 to 157 °C

system: Male Sprague-Dawley rats; assay: Elevated plus-maze in rats; assay type: in vivo; settings: p.o., 60 min after treatment, 5 min test, increase in time spent in or number of entries into the open arms
Text: The anxiolytic effect of the compounds according to the invention was investigated on rats according to the so-called elevated plus-maze test (S. Pelow, P. Chopin, S. E. File, J. Briley: Neurosci. Methods 14, p. 149 (1985)).
A wooden cross elevated to 50 cm above the floor, 15 cm wide with 100 cm long arms was used for the experiments. The sides and ends of two opposite arms of the cross were equipped with 40 cm high walls, however, the arms were open to the 15 cm×15 cm central area (closed arms). The two other opposite arms were not encircled by walls (open arms).
Male Sprague-Dawley rats weighing 200-220 g were used for the experiments. The animals were placed in the central area of the equipment 60 min after treatment and the following four parameters have been observed for the 5 min test time: […]
time spent in the open arms (sec), time spent in the closed arms (sec), number of entries into the open arms, number of entries into the closed arms.
The effect was expressed as percent increase in either the time spent in the open arms or number of entries into the open arms. MEDs (minimal effective doses) were determined for each compound.

Row | Compound | MED (minimal effective dose)
16 | CCC1(CCCCCN2CCc3sccc3C2)C(=O)Nc2ccccc21 (stereo not drawn) [Example 36, 3-[5-(6,7-Dihydro-4H-thieno[3,2-c]pyridin-5-yl)-pentyl]-3-ethyl-1,3-dihydro-2H-indol-2-one monooxalate] | ≦1.0 mg/kg p.o.
17 | CCC1(CCCCN2CC=C(c3ccc(F)cc3)CC2)C(=O)Nc2ccccc21 (stereo not drawn) [Example 39, 3-Ethyl-3-{4-[4-(4-fluorophenyl)-1,2,3,6-tetrahydropyridin-1-yl]-butyl}-1,3-dihydro-2H-indol-2-one monohydrochloride] | 0.01 mg/kg p.o.

target: T1, 5-HT1A receptors (Rattus norvegicus, UniProt P19327); assay: 5-HT1A receptor binding experiment; settings: isolated frontal cortex membrane preparation of rats, tritiated 8-OH-DPAT ligand, 25° C., 30 minutes
T1 construct: from tissue; host or cells: rat frontal cortex membrane preparation
T1 sequence (P19327 1-422): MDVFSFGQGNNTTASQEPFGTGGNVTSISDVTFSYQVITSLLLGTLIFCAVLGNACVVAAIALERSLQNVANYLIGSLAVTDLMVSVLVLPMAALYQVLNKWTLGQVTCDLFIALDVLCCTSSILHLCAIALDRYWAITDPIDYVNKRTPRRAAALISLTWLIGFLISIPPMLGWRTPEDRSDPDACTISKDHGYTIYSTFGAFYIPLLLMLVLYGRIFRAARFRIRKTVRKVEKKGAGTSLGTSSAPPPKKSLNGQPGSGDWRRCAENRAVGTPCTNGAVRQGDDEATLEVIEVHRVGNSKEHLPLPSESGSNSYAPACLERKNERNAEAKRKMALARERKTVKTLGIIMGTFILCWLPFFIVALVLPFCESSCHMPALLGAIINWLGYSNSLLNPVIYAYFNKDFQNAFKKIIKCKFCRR
Method: Binding of the compounds of the general Formula (I) to 5-HT1A receptors was investigated according to the method of Peroutka (S. J. Peroutka: J. Neurochem. 47, p. 529 (1986)).
Receptor bindings were determined from isolated frontal cortex membrane preparation of rats by using tritiated 8-hydroxy-N,N-dipropyl-2-amino-tetraline (8-OH-DPAT) ligand. For the determination of non-specific binding 10 μM serotonin creatinine sulfate was used. The following conditions were applied: incubation […] volume: 250 μl, incubation temperature: 25° C., incubation time: 30 minutes. The reaction was terminated by the addition of 9 ml of 50 mM ice-cold TRIS-HCl buffer (pH=7.7) and quick vacuum filtration using Whatman GFIB fibreglass filtering paper. Radioactivity of the filter boards was measured with the aid of a liquid scintillation spectrometer.
IC50 is the concentration whereby the difference between whole binding and non-specific binding in the presence of 10 μM serotonin creatinine sulfate is 50%. The compounds with an IC50 value smaller than […] were considered effective in this test.

Row | Compound | IC50
18 | CCC1(CCCCN2CCc3sccc3C2)C(=O)Nc2ccc(Cl)cc21 (stereo not drawn) [Example 26, 5-Chloro-3-[4-(6,7-dihydro-4H-thieno[3,2-c]-pyridin-5-yl)-butyl]-3-ethyl-1,3-dihydro-2H-indol-2-one monohydrochloride] | > 0.1 µM
19 | CCC1(CCCCN2CCc3sccc3C2)C(=O)Nc2ccccc21 (stereo not drawn) [Example 29, 3-[4-(6,7-Dihydro-4H-thieno[3,2-c]pyridin-5-yl)-butyl]-3-ethyl-1,3-dihydro-2H-indol-2-one monohydrochloride] | > 0.1 µM
20 | CCC1(CCCCCN2CCc3sccc3C2)C(=O)Nc2ccccc21 (stereo not drawn) [Example 36, 3-[5-(6,7-Dihydro-4H-thieno[3,2-c]pyridin-5-yl)-pentyl]-3-ethyl-1,3-dihydro-2H-indol-2-one monooxalate] | > 0.1 µM
21 | CCC1(CCCCCN2CCc3sc(Cl)cc3C2)C(=O)Nc2ccccc21 (stereo not drawn) [Example 37, 3-[5-(2-Chloro-6,7-dihydro-4H-thieno[3,2-c]-pyridin-5-yl)-pentyl]-3-ethyl-1,3-dihydro-2H-indol-2-one monohydrochloride] | > 0.1 µM
